Measured values: US10028931B2, “Synergistic compositions for treating microbial infections” (UNIVERSITY OF ROCHESTER, priority 2014, dated 2018)
Values after ≈ are worked out from the molar mass of the structure shown. Where two headings read alike, the source gives them in different places.

Assays:
[1] = test system: Staphylococcus aureus strain UAMS-1; assay: Antimicrobial susceptibility testing (MIC, broth microdilution); type: cell-based; details: Staphylococcus aureus, UAMS1, 18 h, S. aureus UAMS-1, Mueller Hinton broth, 37° C., read-out: MIC
Procedure: The RNase P inhibitors described herein were tested for antimicrobial activity toward Staphylococcus aureus strain UAMS-1. Individual wells of a 96-well microtiter plate were inoculated with ˜1×10^5 colony-forming units (CFU) of the indicated organism, containing two-fold increasing concentrations (from 0 to 256 μg mL^−1) of the indicated antibiotic or putative RnpA inhibitor, and incubated at 37° C. for 18 hours in Mueller Hinton broth. The MIC was defined as the lowest concentration of antibiotic in which there was no visible bacterial growth in the wells. Minimum bactericidal concentration testing was performed by enumerating the bacterial cells in each of the wells containing treatments at and above the MIC.

RnpA = target: T1, RnpA (Staphylococcus aureus, UniProt P0A0H5); assay: RnpA mRNA degradation activity assay; type: biochemical
T1 sequence (P0A0H5 1-117): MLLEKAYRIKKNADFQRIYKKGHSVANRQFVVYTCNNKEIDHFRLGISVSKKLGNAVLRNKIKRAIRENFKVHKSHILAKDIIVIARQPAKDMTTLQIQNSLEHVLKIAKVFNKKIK
Procedure: The RNase P inhibitors described herein were tested for activity toward RnpA mRNA degradation activity. Either 1 μg of total S. aureus RNA or 1 pmol of in vitro synthesized spa mRNA was incubated with 20 pmol RnpA at 37° C. for 15 to 30 min in a reaction buffer (50 mM Tris-HCl pH 8.0, 2 mM NaCl, 2 mM MgCl2) in the absence or presence of the indicated compound. Reactions were stopped by adding an equal volume of 2×RNA loading dye (95% formamide, 0.025% SDS, 0.025% bromophenol blue, 0.025% xylene cyanol FF, 0.5 mM EDTA), run on a denaturing 1.0% agarose-0.66 M formaldehyde gel and stained with ethidium bromide. RNA substrates and corresponding degradation products were visualized using a FluorChem 5500 system (Alpha Innotech; San Leandro, Calif.). The inhibitory effects of the test compounds were measured using Image J densitometry software (National Institutes of Health; Bethesda, Md.) to quantify the signal intensity of the RNA band(s) in the negative control (RNA alone), positive control (RnpA+RNA+DMSO), and experimental samples (RnpA+RNA+test compound). The percent enzyme inhibition of test compounds was calculated using the following equation: Percent inhibition=[(experimental signal-positive control)/(negative control signal-positive control signal)]*100.

[2] = target: T2, S. aureus RNase P (RnpA+rnpB) (Staphylococcus aureus, UniProt P0A0H5); assay: RNase P activity assay (precursor tRNA processing); type: biochemical; details: ptRNATyr processing, gel densitometry; read-out: RNase P IC50
T2 sequence (P0A0H5 1-117): T1 sequence (P0A0H5 1-117)
Procedure: The RNase P inhibitors described herein were tested for activity toward RNase P. S. aureus RNase P activity assays were performed in low salt buffer (50 mM Tris-HCl pH 8.0, 5 mM MgCl2) or in high salt buffer (50 mM Tris-HCl pH 8.0, 100 mM MgCl2, 800 mM NH4Cl). For all reactions, ptRNATyr, tRNATyr, or rnpB RNA species were first denatured by heating to 95° C. for 3 minutes, and then slowly cooling the mixtures to room temperature. RNase P was reconstituted by mixing an equal molar ratio of RnpB and RnpA for 15 min at 37° C. Precursor tRNA processing reactions (20 μL) were performed by mixing 1.25 pmol RNase P (RnpA+rnpB), RnpA, or rnpB with an equal volume of 2× low salt buffer or 2× high salt buffer and 10 pmol ptRNATyr. Mixtures were incubated for 15 min at 37° C. Reactions were stopped by adding 20 μL 2×RNA loading dye (95% formamide, 0.025% SDS, 0.025% bromophenol blue, 0.025% xylene cyanol FF, 0.5 mM EDTA), and 30 μL of each sample was electrophoresed in a 7 M urea/8% polyacrylamide gel and was then stained with ethidium bromide (0.5 μg/ml). Where indicated, reactions were repeated in the presence of the indicated amount of putative RnpA inhibitors or dimethyl sulfoxide (DMSO). A FluorChem 5500 imaging system was used to visualize the RNA, and the relative abundance of the mature tRNATyr band in the positive control (RNase P+DMSO) or in samples containing test compounds was measured using Image J densitometry software (NIH). The percent RNase P activity was then calculated using the following calculation: (test compound tRNATyr signal/positive control tRNATyr signal)*100.

S. aureus strain UAMS-1 = assay: Fractional Inhibitory Concentration testing with mupirocin; type: cell-based; details: combined with mupirocin, S. aureus UAMS-1, Mueller Hinton broth, 18 hours; synergistic FIC≤0.5
Procedure: The RNase P inhibitors described herein were tested for Fractional Inhibitory Concentration (FIC) in the presence of mupirocin. FIC testing was performed to determine the combined effects of mupirocin and the RnpA inhibitors as described herein. Individual wells of a 96-well microtiter plate were inoculated with 1×10^5 CFU of S. aureus strain UAMS-1 in a Mueller Hinton broth. Each row of the plate contained increasing concentrations of RNPA1000 or RNPA2000 (two-fold increments; 0, 0.004, 0.008, 0.016, 0.03, 0.06, 0.125, 0.25, 0.5, 1, 2, or 4×MIC), whereas each column contained increasing concentrations of the indicated antibiotic (two-fold increments; 0, 0.06, 0.125, 0.25, 0.5, 1, 2, or 4×MIC). Plates were incubated for 18 hours at 37° C., and growth was detected by the unaided eye. The FIC was determined using the following formula: (MIC of Drug A in Combination/MIC of Drug A Alone)+(MIC of Drug B in Combination/MIC of Drug B Alone)=FIC. A synergistic interaction was defined as an FIC value≤0.5, no interaction as an FIC of 0.5-4, or an antagonistic interaction FIC>4.

[3] = RnpA mRNA degradation, gel densitometry, read-out: RnpA IC50

SMILES	MIC [1] [µg/mL]	IC50 (RnpA; [3]) [µM]	IC50 [2] [µM]	FIC with Mupirocin (S. aureus strain UAMS-1)	IC50 (RnpA) [µM]
CC(C)c1ccc(OCC(=O)NNC(=O)/C=C/c2cc3ccccc3o2)cc1 [MC-190048]	> 256	< 50	< 50	0.5625	–
CC(C)c1ccc(OCC(=O)NNC(=S)NC(=O)c2cccs2)cc1 [MC-190029]	128 (≈ 339 µM)	> 500	380	0.5	–
CC(C)c1ccc(OCC(=O)NNC(=S)NC(=O)c2ccc(Br)o2)cc1 [MC-190046]	32 (≈ 72.7 µM)	30	140	0.3125	–
Cc1ccoc1C(=O)NNC(=O)COc1ccc(C(C)C)cc1 [MC-190040]	> 256	480	230	0.625	–
CC(C)c1ccc(OCC(=O)NNC(=S)NC(=O)c2cc3ccccc3s2)cc1 [MC-220001]	> 256	50	100	0.56	–
CC(C)c1ccc(OCC(=O)NNC(=S)NC(=O)/C=C/c2ccco2)cc1 [MC-190045]	64 (≈ 165 µM)	100	32	0.625	–
CC(C)c1ccc(OCC(=O)NNC(=S)NC(=O)/C=C/c2cc3ccccc3o2)cc1 [MC-190047]	64 (≈ 146 µM)	30	26	0.625	–
CC(C)c1ccc(OCC(=O)NNC(=S)NC(=O)c2nc3ccccc3[nH]2)cc1 [MC-190052]	128 (≈ 311 µM)	150	90	0.56	–
CC(C)c1ccc(OCC(=O)NNC(=S)NC(=O)c2cc3cc(Cl)ccc3[nH]2)cc1 [MC-190064]	256 (≈ 575 µM)	–	100	0.53	> 500
CC(C)c1ccc(OCC(=O)NNC(=S)NC(=O)c2cc3ccccc3[nH]2)cc1 [MC-190054]	16 (≈ 39 µM)	50	< 0.5	0.49	–
CC(C)c1ccc(OCC(=O)NNC(=S)NC(=O)c2ccccn2)cc1 [MC-190053]	32 (≈ 85.9 µM)	100	1	0.49	–
CCOc1ccccc1C(=O)NNC(=S)NC(=O)c1ccco1 [MC-190067]	8 to 16 (≈ 24 to 48 µM)	> 500	> 500	0.625	–
CC(C)c1ccc(OCC(=O)NNC(=S)NC(=O)c2cc3ccc(Cl)cc3[nH]2)cc1 [MC-190066]	16 (≈ 36 µM)	250	< 50	0.75	–
CC(C)c1ccc(OCC(=O)NNC(=S)NC(=O)c2cc3ccccc3o2)cc1 [MC-190031]	32 (≈ 77.8 µM)	60	1	0.25	–
CCOc1ccc(OCC(=O)NNC(=S)NC(=O)c2ccco2)cc1 [MC-190071]	256 (≈ 704 µM)	> 500	> 500	0.375	–

Now from value to compound, other results behind:

MIC [1] [µg/mL]	IC50 (RnpA; [3]) [µM]	IC50 [2] [µM]	SMILES	FIC with Mupirocin (S. aureus strain UAMS-1)	IC50 (RnpA) [µM]
> 128	> 500	65	CCCc1ccc(OCC(=O)NNC(=S)NC(=O)c2ccco2)cc1 [ST5682783]	0.31	–
8 (≈ 23.9 µM)	> 500	> 500	CC(C)c1ccc(OCC(=O)NNC(=S)NC(=O)C2CC2)cc1 [ST5523314]	1	–
> 128	40	> 500	Cc1ccc(C(C)C)c(OCC(=O)NNC(=S)NC(=O)c2ccccc2OCCOc2ccccc2)c1 [ST5528960]	0.56	–
16 (≈ 35.8 µM)	35	220	Cc1cc(OCC(=O)NNC(=S)NC(=O)c2ccc(Br)o2)ccc1Cl [ST5522821]	0.75	–
32 (≈ 79.3 µM)	45	110	CC(C)c1ccccc1OCC(=O)NNC(=S)NC(=O)/C=C/c1cccs1 [ST5523210]	0.75	–
16 (≈ 48 µM)	> 500	> 500	Cc1ccccc1OCC(=O)NNC(=S)NC(=O)c1ccco1 [ST5522690]	1	–
32 (≈ 67.5 µM)	45	65	O=C(COc1ccc(-c2ccccc2)cc1)NNC(=S)NC(=O)c1ccc(Br)o1 [ST5524465]	0.625	–
> 128	> 500	> 500	CC(Oc1ccc2ccccc2c1)C(=O)NNC(=S)NC(=O)c1ccco1 (stereo not shown) [ST5682782]	0.25	–
4 (≈ 9.94 µM)	> 500	75	Cc1occc1C(=O)NNC(=S)NC(=O)COc1ccc(Cl)cc1Cl [ST5523108]	0.49	–
4 (≈ 11.5 µM)	430	95	CCCOc1ccccc1C(=O)NNC(=S)NC(=O)c1ccco1 [ST5528488]	0.5	–
8 (≈ 17.6 µM)	> 500	200	CC(C)(C)c1ccc(OCC(=O)NNC(=S)NC(=O)c2ccco2)c(Br)c1 [ST5524527]	0.625	–
128 (≈ 295 µM)	> 500	100	Cc1cccc(C)c1OCC(=O)NNC(=S)NC(=O)c1ccc(-c2ccccc2)cc1 [ST5523335]	0.375	–
> 128	> 500	380	CC(C)c1ccccc1OCC(=O)NNC(=S)NC(=O)c1ccccc1OCCOc1ccccc1 [ST5528880]	0.56	–
